Test system: platelets in whole blood
Experiment: Blood coagulability measurement of whole blood by dielectric constant (dielectric coagulometer, DiCA-Ex / DiCA-In)
Assay type: cell-based, human (healthy subject)
Experimental: Measurement of blood coagulability was conducted using the blood put to reaction in the experiment of 3-2 above. The measurement was carried out using a blood coagulation system analyzing device (dielectric coagulometer prototype No. 2), for performing the measurement of dielectric constant of the sample as aforementioned, and a comprehensive hemostatic ability measuring system ROTEM (registered trademark), at a measurement temperature of 37° C.
In the case of the blood coagulation system analyzing device, measurement of DiCA-Ex to which an aqueous calcium solution (0.2 M Ca) and a commercialized extrinsic stimulus reagent (100 fold dilution+PBS (v/v=1/5)) were added immediately before the start of measurement, and measurement of DiCA-In to which an aqueous calcium solution (0.2 M Ca) and a commercialized intrinsic stimulus reagent (+PBS(v/v=1/5)) were added, were conducted. The amount was unifiedly set to be 12 uL per 180 uL of blood.
The time of 10 minutes determinative of coagulation time was taken as an investigation time (FIG. 12-1), the maximum value was taken as 1, and the reciprocal of the difference therefrom was calculated (calculated CF), the results being depicted in FIG. 12-2. An average value obtained in the case where NaCl was added (control) was 17.7, whereas an average value obtained in the case where the platelet inducing substance was added was 12.7 (n=4).

Compound | difference between control and platelet inducing substance (platelet contribution part) (combination with ADP) | amplitude of time variation in dielectric constant (normalized) at 100 kHz (whole blood, versus +NaCl control)
CCCCC[C@H](O)/C=C/[C@H]1[C@H](O)CC(=O)[C@@H]1CCCCCCC(=O)O [prostaglandin E1] | this difference is reduced | 
thrombin receptive activated protein [TRAP] |  | the amplitude is raised

Source: patent US20190049428A1, “PLATELET AGGREGABILITY ANALYZING DEVICE, PLATELET AGGREGABILITY ANALYZING SYSTEM, PLATELET AGGREGABILITY ANALYZING PROGRAM, AND METHOD OF ANALYZING PLATELET AGGREGABILITY” (Sony Corporation, priority 2016, published 2019)
